The text below walks through data of patent US12721840B2, “Methods of treating glioblastoma multiforme using combination therapy” (MediciNova, Inc., priority 2021, dated 2026).

Data set [1] deals with GBM orthotopic tumors (SB28 cells). Put plainly: Murine GBM model: survival of mice bearing orthotopic syngeneic SB28 tumors. The data set is classed as in vivo. As to conditions: syngeneic mouse model, 20,000 SB28 cells; ibudilast 50 mg/kg, anti-PD1 25 μg/dose; 3 intraperitoneal injections 3 days apart from day 7 post-engraftment; n=10 male mice/group; control 17 days. The procedure:
FIGURE depicts results from a murine glioblastoma model (ibudilast treatment in a syngeneic mouse model (20,000 SB28 cells) synergized with anti-PD1), in which mice are treated with ibudilast, an anti-PD-1 antibody, or a combination of ibudilast and an anti-PD-1 antibody. Isotype serves as negative control for the anti-PD-1 antibody and vehicle serves as negative control for ibudilast. Treatment was initiated at day 7 post-engraftment with 3 intraperitoneal injections 3 days apart; n=10 mice/group (male); median survival provided for each group, *p<0.05, **p<0.01, ***p<0.001 as assessed by log-rank (colored stars indicate comparison to each control group).
Mice bearing GBM orthotopic tumors were subjected to treatment with a PD-1 antibody in the presence or absence of ibudilast (or to ibudilast alone) and evaluated for their survival after the start of treatment. More particularly, ibudilast treatment (50 mg/kg) was performed in a syngeneic mouse model (20,000 SB28 cells) synergized with anti-PD1 (25 μg/dose). Treatment was initiated at day 7 post-engraftment with 3 intraperitoneal injections 3 days apart; n=10 mice/group (male).

The conditions of data set [2]: literature statement (Sanftner et al Xenobiotica 2009; Chen et al. 2002); cited from earlier work.

Turning to `CC(C)C(=O)c1c(C(C)C)nn2ccccc12` [Ibudilast, 3-isobutyryl-2-isopropylpyrazolo[1,5-a]pyridine], in data set [1], the median survival result was “did not impact median survival”. The “penetration into the central nervous system (CNS)” value in data set [2] is on record as “good CNS penetration”.

Take `COc1ccc(C2CNC(=O)C2)cc1OC1CCCC1` (stereo not drawn) [rolipram]: the “penetration into the central nervous system (CNS)” value in data set [2] is “poor penetration into the central nervous system”.
